Results: patent US20230279244A1, “RESIN COMPOSITION, COATED AND DRIED PRODUCT, MELT-KNEADED PRODUCT, OPTICAL FILTER, IMAGE DISPLAY DEVICE, SOLID-STATE IMAGING ELEMENT, SQUARYLIUM COMPOUND, AND METHOD FOR PRODUCING THE SAME” (FUJIFILM Corporation, priority 2020, published 2023)

Assays:
[1] = Measurement of maximal absorption wavelength of squarylium compound (Test Example 1); type: physicochemical; details: in chloroform, concentration 1×10^−6 mol/L, optical path length 10 mm
Experimental: The obtained squarylium compound B-12 was dissolved in chloroform (concentration: 1×10^−6 mol/L), and the maximum absorption wavelength λmax of the squarylium compound B-12 was measured using a cell having an optical path length of 10 mm and using a spectrophotometer UV-1800PC (manufactured by Shimadzu Corporation).

[2] = Evaluation of solubility of squarylium compound in toluene/cyclohexanone mixed solvent (Test Example 2); type: physicochemical; details: for Solubility: mixed solvent toluene/cyclohexanone=90/10 (vol %); for Solubility, measured dissolved amount: dissolved in 100 parts by mass of toluene/cyclohexanone=90/10 (vol %)
Experimental: Solubility of the obtained squarylium compound B-12 in a mixed solvent of toluene/cyclohexanone (toluene/cyclohexanone=90/10 (vol %)) was confirmed. Specifically, a dissolved amount (% by mass) of squarylium compound B-12 dissolved in 100 parts by mass of the mixed solvent of toluene/cyclohexanone was measured.
The solubility was evaluated by applying the obtained dissolved amount to the following standard.
—Evaluation Standard of Solubility—
B: 0.01% by mass or more and less than 0.1% by mass
C: less than 0.01% by mass

λmax (maximum absorption wavelength) [1] | Solubility [2] | Solubility, measured dissolved amount [2] | Compound | Solubility in an organic solvent (in words) ([2]; summary of Tables 1 to 5)
680 nm | C (less than 0.01% by mass) | (<0.005% by mass | CC(=O)NC1=CC(=[N+](/C)c2ccccc2)/C=CC/1=C1/C(=O)C(c2ccc(N(C)c3ccccc3)cc2NC(C)=O)=C1[O-] [C-1, reference compound] | 
737 nm | C (less than 0.01% by mass) | (<0.005% by mass | CC(=O)NC1=CC(=[N+](c2ccccc2)c2ccccc2)C=C/C1=C1/C(=O)C(c2ccc(N(c3ccccc3)c3ccccc3)cc2NC(C)=O)=C1[O-] [C-2, reference compound] | 
658 nm | C (less than 0.01% by mass) | (<0.005% by mass | Cc1ccc(N(C)c2ccc(C3=C([O-])/C(=C4C=C/C(=[N+](\C)c5ccc(C)cc5)C=C\4O)C3=O)c(O)c2)cc1 [C-3, reference compound] | 
681 nm | C (less than 0.01% by mass) | (<0.01% by mass | CCCCN(c1ccccc1)c1ccc(C2=C([O-])/C(=C3C=C/C(=[N+](\CCCC)c4ccccc4)C=C\3NC(C)=O)C2=O)c(NC(C)=O)c1 [C-6, reference compound] | 

Further lines, the compound ahead of its results:

Compound | λmax (maximum absorption wavelength) [1] | Solubility [2] | Solubility, measured dissolved amount [2] | Solubility in an organic solvent (in words) ([2]; summary of Tables 1 to 5)
CCCCC(CC)C(=O)NC1=CC(=[N+](/CCCC)c2ccc(C)cc2)/C=CC/1=C1\C(=O)C(c2ccc(N(CCCC)c3ccc(C)cc3)cc2NC(=O)C(CC)CCCC)=C1[O-] (stereo not shown) [A-1] | 688 nm | A (0.1% by mass or more) |  | 
CCCCC(CC)CN(c1ccc(C)cc1)c1ccc(C2=C([O-])/C(=C3C=C/C(=[N+](\CC(CC)CCCC)c4ccc(C)cc4)C=C/3NC(=O)C(C)(C)CC)C2=O)c(NC(=O)C(C)(C)CC)c1 (stereo not shown) [A-2] | 690 nm | A (0.1% by mass or more) |  | 
CCCCC(CC)CN(CC(CC)CCCC)c1ccc(C2=C([O-])/C(=C3/C=CC(=[N+](c4ccc(C)cc4)c4ccc(C)cc4)C=C3NC(=O)C(C)(C)CC)C2=O)c(NC(=O)C(C)(C)CC)c1 (stereo not shown) [A-4] | 699 nm | A (0.1% by mass or more) |  | 
CCCCC(CC)CN(CC(CC)CCCC)c1ccc(C2=C([O-])/C(=C3C=C/C(=[N+](\CC(CC)CCCC)c4ccc(C)cc4)C=C/3NC(=O)C(C)(C)CC)C2=O)c(NC(=O)C(C)(C)CC)c1 (stereo not shown) [A-5] | 681 nm | A (0.1% by mass or more) |  | 
CCCCc1ccc(N(CC(CC)CCCC)c2ccc(C3=C([O-])/C(=C4C=C/C(=[N+](\CC(CC)CCCC)c5ccc(CCCC)cc5)C=C/4NC(=O)C(C)(C)CC)C3=O)c(NC(=O)C(C)(C)CC)c2)cc1 (stereo not shown) [A-19] | 687 nm | A (0.1% by mass or more) |  | 
CCCCc1ccc(N(CC(CC)CCCC)c2ccc(C3=C([O-])/C(=C4C=C/C(=[N+](\CC(CC)CCCC)c5ccc(CCCC)cc5)C=C/4NC(=O)c4c(C)cc(C)cc4C)C3=O)c(NC(=O)c3c(C)cc(C)cc3C)c2)cc1 (stereo not shown) [A-20] | 696 nm | A (0.1% by mass or more) |  | 
CCCCc1ccc(N(CC(CC)CCCC)c2ccc(C3=C([O-])/C(=C4C=C/C(=[N+](\CC(CC)CCCC)c5ccc(CCCC)cc5)C=C/4NC(=O)C(F)(F)F)C3=O)c(NC(=O)C(F)(F)F)c2)cc1 (stereo not shown) [A-22] | 688 nm | A (0.1% by mass or more) |  | 
CCCCC(CC)CN(c1ccc(C2=C([O-])/C(=C3C=C/C(=[N+](\CC(CC)CCCC)c4ccc(C)cc4C)C=C/3NC(=O)C(C)(C)CC)C2=O)c(NC(=O)C(C)(C)CC)c1)c1ccc(C)cc1C (stereo not shown) [A-26] | 688 nm | A (0.1% by mass or more) |  | 
CCCCc1ccc(N(CC(CC)CCCC)c2ccc(C3=C([O-])/C(=C4C=C/C(=[N+](\CC(CC)CCCC)c5ccc(CCCC)cc5)C=C/4NC(=O)c4ccccc4)C3=O)c(NC(=O)c3ccccc3)c2)cc1 (stereo not shown) [A-28] | 695 nm | A (0.1% by mass or more) |  | 
CCCCc1ccc(N(CC(CC)CCCC)c2ccc(C3=C([O-])/C(=C4C=C/C(=[N+](\CC(CC)CCCC)c5ccc(CCCC)cc5)C=C/4NC(=O)c4ccccc4C)C3=O)c(NC(=O)c3ccccc3C)c2)cc1 (stereo not shown) [A-29] | 695 nm | A (0.1% by mass or more) |  | 
CCCCc1ccc(N(CC(CC)CCCC)c2ccc(C3=C([O-])/C(=C4C=C/C(=[N+](\CC(CC)CCCC)c5ccc(CCCC)cc5)C=C/4NC(=O)c4ccc5ccccc5c4)C3=O)c(NC(=O)c3ccc4ccccc4c3)c2)cc1 (stereo not shown) [A-30] | 697 nm | A (0.1% by mass or more) |  | 
CCN(c1ccc(C)cc1)c1ccc(C2=C([O-])/C(=C3C=C/C(=[N+](\CC)c4ccc(C)cc4)C=C/3NC(=O)C(C)C)C2=O)c(NC(=O)C(C)C)c1 [C-4, reference compound] | 685 nm | B (0.01% by mass or more and less than 0.1% by mass) |  | exhibiting solubility in an organic solvent
